The target of experiment [1] is T1, Suppressor of tumorigenicity 14 protein (Homo sapiens, UniProt Q9Y5Y6).
T1 sequence (Q9Y5Y6 whole entry): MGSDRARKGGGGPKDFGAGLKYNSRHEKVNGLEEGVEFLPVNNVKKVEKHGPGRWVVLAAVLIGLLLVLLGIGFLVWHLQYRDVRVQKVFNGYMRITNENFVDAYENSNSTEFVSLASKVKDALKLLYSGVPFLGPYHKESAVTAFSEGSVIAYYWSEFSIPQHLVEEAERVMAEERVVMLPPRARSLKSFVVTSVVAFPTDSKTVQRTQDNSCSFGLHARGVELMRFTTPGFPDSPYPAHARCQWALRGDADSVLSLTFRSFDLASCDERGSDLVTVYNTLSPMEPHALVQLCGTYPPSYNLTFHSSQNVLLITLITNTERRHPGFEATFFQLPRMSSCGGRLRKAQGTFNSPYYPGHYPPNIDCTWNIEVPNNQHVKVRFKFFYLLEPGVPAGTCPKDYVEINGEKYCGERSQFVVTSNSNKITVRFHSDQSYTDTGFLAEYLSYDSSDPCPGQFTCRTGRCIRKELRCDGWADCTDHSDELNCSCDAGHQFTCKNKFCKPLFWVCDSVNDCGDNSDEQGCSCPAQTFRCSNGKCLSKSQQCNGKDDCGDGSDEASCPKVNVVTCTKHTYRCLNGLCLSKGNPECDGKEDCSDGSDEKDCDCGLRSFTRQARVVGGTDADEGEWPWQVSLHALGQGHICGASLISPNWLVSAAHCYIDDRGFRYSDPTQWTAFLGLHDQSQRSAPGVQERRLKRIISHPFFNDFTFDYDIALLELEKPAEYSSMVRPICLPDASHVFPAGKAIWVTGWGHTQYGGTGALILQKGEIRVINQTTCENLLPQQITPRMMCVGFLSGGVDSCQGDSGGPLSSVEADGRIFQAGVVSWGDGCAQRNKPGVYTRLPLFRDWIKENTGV
Description: Enzyme Inhibition Assay. The conditions noted are these: pH 8.5; 22 °C. On the procedure: (§1) The enzyme reaction was initiated by adding fluorescence peptide substrate to reaction mixture containing enzyme and test compounds. […] Hydrolysis rates were recorded in presence of six to seven different concentrations of inhibitor.

The next experiment deals with Prothrombin (Bos taurus, UniProt P00735). Description: Enzyme Inhibition Assay. The settings on record: pH 8.5; 22 °C. On the procedure: as §1

SMILES strings stand for the structures.

Regarding `CC[C@H](C)[C@@H]1NC(=O)[C@@H]2CCCN2C(=O)[C@@H]2CCCN2C(=O)[C@H]([C@@H](C)CC)NC(=O)[C@H](CO)NC(=O)[C@H](CCCCN)NC(=O)[C@H]([C@@H](C)O)NC(=O)[C@@H]2CSSC[C@H](NC1=O)C(=O)N[C@@H](Cc1ccccc1)C(=O)N1CCC[C@H]1C(=O)N[C@@H](CC(=O)O)C(=O)NCC(=O)N[C@@H](CCCNC(N)=O)C(=O)N2` [2-[(1R,4S,7S,13S,19S,22S,25S,28S,31R,34S,40S,43S,49S)-25-(4-aminobutyl)-49-benzyl-4,19-bis[(2S)-butan-2-yl]-34-[3-(carbamoylamino)propyl]-28-[(1R)-1-hydroxyethyl]-22-(hydroxymethyl)-3,6,12,18,21,24,27,30,33,36,39,42,48,51-tetradecaoxo-53,54-dithia-2,5,11,17,20,23,26,29,32,35,38,41,47,50-tetradecaazapentacyclo[29.20.4.0^{7,11}.0^{13,17}.0^{43,47}]pentapentacontan-40-yl]acetic acid], the results for the inhibition constant (Ki) (in experiment [1]; at Prothrombin) were 22.5 µM and 827 µM, respectively.

`CC[C@H](C)[C@@H]1NC(=O)[C@@H]2CCCN2C(=O)[C@@H]2CCCN2C(=O)[C@H]([C@@H](C)CC)NC(=O)[C@H](CO)NC(=O)[C@H](CCCNC(=N)N)NC(=O)[C@H]([C@@H](C)O)NC(=O)[C@@H]2CSSC[C@H](NC1=O)C(=O)N[C@@H](Cc1ccccc1)C(=O)N1CCC[C@H]1C(=O)N[C@@H](CC(=O)O)C(=O)NCC(=O)N[C@@H](CCCNC(=N)N)C(=O)N2` [2-[(1R,4S,7S,13S,19S,22S,25S,28S,31R,34S,40S,43S,49S)-49-benzyl-4,19-bis[(2S)-butan-2-yl]-25,34-bis(3-carbamimidamidopropyl)-28-[(1R)-1-hydroxyethyl]-22-(hydroxymethyl)-3,6,12,18,21,24,27,30,33,36,39,42,48,51-tetradecaoxo-53,54-dithia-2,5,11,17,20,23,26,29,32,35,38,41,47,50-tetradecaazapentacyclo[29.20.4.0^{7,11}.0^{13,17}.0^{43,47}]pentapentacontan-40-yl]acetic acid]: the Ki came to 4.75 µM in experiment [1] and 0.86 µM at Prothrombin.

The record behind these values is BindingDB's records for doi:10.1021/jm0704898 (Georgetown University Medical Center, 2007).
